# Experimental data from PMC11003488 (Journal of Enzyme Inhibition and Medicinal Chemistry, 2023).
# Like-named read-outs stand apart in the source and are kept apart here.
# Legend:
# CCRF-CEM = assay: NCI-60 SRB growth inhibition, one-dose and five-dose; type: cell-based; settings: Homo sapiens; for inhibition at 10 µM: read-out: percent growth inhibition
# Melanoma cell lines = assay: NCI-60 SRB growth inhibition, subpanel; type: cell-based, human; settings: for GI50: Homo sapiens
# [1] = system: WI-38 normal human fibroblast cells; assay: Cytotoxicity towards normal fibroblasts, safety index; type: cell-based; settings: WI-38 versus cancer cell lines
# [2] = as above; type: cell-based, human; settings: human, WI-38 normal fibroblast cells
# UACC-257 = assay: NCI-60 SRB growth inhibition, one-dose and five-dose; type: cell-based; settings: Homo sapiens; for GI50: UACC-257; for inhibition at 10 µM: UACC-257, read-out: percent growth inhibition
# LOX IMVI = assay: as above; type: cell-based; settings: Homo sapiens; for inhibition at 10 µM: read-out: percent growth inhibition
# HOP-62 = assay: as above; type: cell-based; settings: Homo sapiens; for GI50: HOP-62; for inhibition at 10 µM: HOP-62, read-out: percent growth inhibition
# [3] = system: Prostate cancer cell lines; assay: NCI-60 SRB growth inhibition, subpanel; type: cell-based, human; settings: for GI50: Homo sapiens
# MDA-MB-231/ATCC = assay: NCI-60 SRB growth inhibition, one-dose and five-dose; type: cell-based; settings: Homo sapiens; for GI50: MDA-MB-231
# Renal cancer cell lines = assay: NCI-60 SRB growth inhibition, subpanel; type: cell-based, human; settings: for GI50: Homo sapiens
# UO-31 = assay: NCI-60 SRB growth inhibition, one-dose and five-dose; type: cell-based; settings: Homo sapiens; for GI50: UO-31
# MALME-3M = assay: as above; type: cell-based; settings: Homo sapiens; for inhibition at 10 µM: read-out: percent growth inhibition
# SK-OV-3 = assay: as above; type: cell-based; settings: Homo sapiens; for GI50: SK-OV-3; for inhibition at 10 µM: SK-OV-3, read-out: percent growth inhibition
# ACHN = assay: as above; type: cell-based; settings: Homo sapiens; for inhibition at 10 µM: read-out: percent growth inhibition
# SK-MEL-5 = assay: as above; type: cell-based; settings: Homo sapiens; for GI50: SK-MEL-5; for inhibition at 10 µM: SK-MEL-5, read-out: percent growth inhibition
# NCI-H226 = assay: as above; type: cell-based; settings: Homo sapiens; for GI50: NCI-H226; for inhibition at 10 µM: NCI-H226, read-out: percent growth inhibition
# SF-295 = assay: as above; type: cell-based; settings: Homo sapiens; for GI50: SF-295; for inhibition at 10 µM: SF-295, read-out: percent growth inhibition
# HT29 = assay: as above; type: cell-based; settings: Homo sapiens; for GI50: HT-29; for inhibition at 10 µM: HT-29, read-out: percent growth inhibition
# Leukaemia cell lines = assay: NCI-60 SRB growth inhibition, subpanel; type: cell-based, human; settings: for GI50: Homo sapiens
# MDA-MB-435 = assay: NCI-60 SRB growth inhibition, one-dose and five-dose; type: cell-based; settings: Homo sapiens; for GI50: MDA-MB-435; for inhibition at 10 µM: MDA-MB-435, read-out: percent growth inhibition
# MDA-MB-468 = assay: as above; type: cell-based; settings: Homo sapiens; for GI50: MDA-MB-468; for inhibition at 10 µM: MDA-MB-468, read-out: percent growth inhibition
# COLO 205 = assay: as above; type: cell-based; settings: Homo sapiens; for GI50: COLO 205; for inhibition at 10 µM: COLO 205, read-out: percent growth inhibition
# [4] = system: Ovarian cancer cell lines; assay: NCI-60 SRB growth inhibition, subpanel; type: cell-based, human; settings: for GI50: Homo sapiens
# DU-145 = assay: NCI-60 SRB growth inhibition, one-dose and five-dose; type: cell-based; settings: Homo sapiens; for GI50: DU-145; for inhibition at 10 µM: DU-145, read-out: percent growth inhibition
# CNS cancer cell lines = assay: NCI-60 SRB growth inhibition, subpanel; type: cell-based, human; settings: for GI50: Homo sapiens
# NSCLC cell lines = assay: NCI-60 SRB growth inhibition, subpanel; type: cell-based, human; settings: for GI50: Homo sapiens
# Human VEGFR-2 = Human VEGFR-2 (Homo sapiens, UniProt P35968); assay: VEGFR-2 inhibition assay; type: biochemical
# Human VEGFR-2, sequence (P35968 20-1356): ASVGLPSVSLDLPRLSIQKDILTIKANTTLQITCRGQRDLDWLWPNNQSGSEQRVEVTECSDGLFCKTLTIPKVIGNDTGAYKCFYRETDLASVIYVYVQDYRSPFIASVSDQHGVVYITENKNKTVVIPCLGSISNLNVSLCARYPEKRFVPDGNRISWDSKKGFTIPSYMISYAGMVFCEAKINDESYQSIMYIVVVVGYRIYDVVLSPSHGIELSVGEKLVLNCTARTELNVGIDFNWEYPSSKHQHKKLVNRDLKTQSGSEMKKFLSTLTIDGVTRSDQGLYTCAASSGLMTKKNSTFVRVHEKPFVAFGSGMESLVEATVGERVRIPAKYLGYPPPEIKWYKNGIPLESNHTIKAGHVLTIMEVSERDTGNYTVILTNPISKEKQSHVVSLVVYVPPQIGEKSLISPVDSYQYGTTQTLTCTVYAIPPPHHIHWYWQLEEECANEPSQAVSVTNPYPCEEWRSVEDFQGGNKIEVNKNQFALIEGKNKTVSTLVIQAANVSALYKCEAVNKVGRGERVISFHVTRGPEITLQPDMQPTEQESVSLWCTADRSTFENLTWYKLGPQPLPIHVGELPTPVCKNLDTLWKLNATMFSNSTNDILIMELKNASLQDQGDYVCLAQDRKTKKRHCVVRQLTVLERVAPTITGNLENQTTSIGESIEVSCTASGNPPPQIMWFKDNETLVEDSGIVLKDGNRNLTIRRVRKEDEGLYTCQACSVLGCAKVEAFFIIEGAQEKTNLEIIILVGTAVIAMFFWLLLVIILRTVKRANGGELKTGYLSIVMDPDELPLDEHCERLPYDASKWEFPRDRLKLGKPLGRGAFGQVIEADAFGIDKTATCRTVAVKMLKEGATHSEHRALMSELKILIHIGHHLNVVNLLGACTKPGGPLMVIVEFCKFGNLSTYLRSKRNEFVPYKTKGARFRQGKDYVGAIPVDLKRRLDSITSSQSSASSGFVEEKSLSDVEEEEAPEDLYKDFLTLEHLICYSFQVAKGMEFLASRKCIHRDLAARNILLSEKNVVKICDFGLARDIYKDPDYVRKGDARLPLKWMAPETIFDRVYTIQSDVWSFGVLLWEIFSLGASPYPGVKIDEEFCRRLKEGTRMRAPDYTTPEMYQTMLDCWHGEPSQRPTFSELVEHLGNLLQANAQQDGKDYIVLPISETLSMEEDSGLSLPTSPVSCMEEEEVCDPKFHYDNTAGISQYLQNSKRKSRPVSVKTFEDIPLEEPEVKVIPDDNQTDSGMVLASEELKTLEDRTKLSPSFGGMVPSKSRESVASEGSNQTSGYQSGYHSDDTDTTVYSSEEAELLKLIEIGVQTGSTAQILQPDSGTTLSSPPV
# OVCAR-4 = assay: NCI-60 SRB growth inhibition, one-dose and five-dose; type: cell-based; settings: Homo sapiens; for GI50: OVCAR-4; for inhibition at 10 µM: OVCAR-4, read-out: percent growth inhibition
# Colon cancer cell lines = assay: NCI-60 SRB growth inhibition, subpanel; type: cell-based, human; settings: for GI50: Homo sapiens
# KM12 = assay: NCI-60 SRB growth inhibition, one-dose and five-dose; type: cell-based; settings: Homo sapiens; for GI50: KM12; for inhibition at 10 µM: KM12, read-out: percent growth inhibition
# Breast cancer cell lines = assay: NCI-60 SRB growth inhibition, subpanel; type: cell-based, human; settings: for GI50: Homo sapiens
structure (smiles),measurement,setting,value
"Cc1ccc(CNc2cccc(C(=O)/C=C/c3cccnc3)c2)cc1 [Compound 5a, (E)-1–(3-((4-methylbenzyl)amino)phenyl)-3-(pyridin-3-yl)prop-2-en-1-one]",GI50,CCRF-CEM,2.58 µM
same,inhibition at 10 µM,CCRF-CEM,53.1%
same,GI50,Melanoma cell lines; read-out: GI50 MG-MID,10.6 µM
same,Safety index,[1],>1
same,GI50 at 48 h,[2],> 100 µM
same,GI50,UACC-257,14.4 µM
same,inhibition at 10 µM,UACC-257,39.6%
same,GI50,LOX IMVI,1.88 µM
same,inhibition at 10 µM,LOX IMVI,195%
same,GI50,HOP-62,15.6 µM
same,inhibition at 10 µM,HOP-62,15.1%
same,GI50,[3]; read-out: GI50 MG-MID,13.8 µM
same,GI50,MDA-MB-231/ATCC,11.3 µM
same,inhibition at 10 µM,"MDA-MB-231/ATCC; MDA-MB-231, read-out: percent growth inhibition",110%
same,GI50,Renal cancer cell lines; read-out: GI50 MG-MID,13.3 µM
same,GI50,UO-31,11.7 µM
same,inhibition at 10 µM,"UO-31; UO-31, read-out: percent growth inhibition",47.5%
same,GI50,MALME-3M,13.6 µM
same,inhibition at 10 µM,MALME-3M,127%
same,GI50,SK-OV-3,16.1 µM
same,inhibition at 10 µM,SK-OV-3,60.2%
same,GI50,ACHN,14 µM
same,inhibition at 10 µM,ACHN,130%
same,GI50,SK-MEL-5,8.96 µM
same,inhibition at 10 µM,SK-MEL-5,74.9%
same,GI50,NCI-H226,11.9 µM
same,inhibition at 10 µM,NCI-H226,37.9%
same,GI50,SF-295,14 µM
same,inhibition at 10 µM,SF-295,58.9%
same,GI50,HT29,14.1 µM
same,inhibition at 10 µM,HT29,159%
same,GI50,Leukaemia cell lines; read-out: GI50 MG-MID,3.34 µM
same,GI50,MDA-MB-435,3.04 µM
same,inhibition at 10 µM,MDA-MB-435,92%
same,GI50,MDA-MB-468,6.3 µM
same,inhibition at 10 µM,MDA-MB-468,153%
same,GI50,COLO 205,17.1 µM
same,inhibition at 10 µM,COLO 205,36.9%
same,GI50,[4]; read-out: GI50 MG-MID,11.4 µM
same,GI50,DU-145,13.3 µM
same,inhibition at 10 µM,DU-145,53.9%
same,GI50,CNS cancer cell lines; read-out: GI50 MG-MID,13.2 µM
same,GI50,NSCLC cell lines; read-out: GI50 MG-MID,13.7 µM
same,IC50,Human VEGFR-2,2 ± 0.023 µM
same,GI50,OVCAR-4,6.81 µM
same,inhibition at 10 µM,OVCAR-4,63.8%
same,GI50,Colon cancer cell lines; read-out: GI50 MG-MID,8.84 µM
same,GI50,KM12,8.36 µM
same,inhibition at 10 µM,KM12,155%
same,GI50,Breast cancer cell lines; read-out: GI50 MG-MID,9.21 µM
"CC(=O)Nc1ccc(CNc2cccc(C(=O)/C=C/c3cccnc3)c2)cc1 [Compound 5b, (E)-N-(4-(((3–(3-(pyridin-3-yl)acryloyl)phenyl)amino)methyl)phenyl)acetamide]",GI50,CCRF-CEM,2.8 µM
same,inhibition at 10 µM,CCRF-CEM,141%
same,GI50,Melanoma cell lines; read-out: GI50 MG-MID,3.99 µM
same,GI50,Melanoma cell lines; read-out: MG-MID GI50,3.99 µM
same,SI (Selectivity Index),Melanoma cell lines; full panel MG-MID / Melanoma subpanel MG-MID,1.12
same,Safety index,[1],>1
same,GI50 at 48 h,[2],> 100 µM
same,GI50,UACC-257,9.35 µM
same,inhibition at 10 µM,UACC-257,120%
same,GI50,LOX IMVI,1.65 µM
same,inhibition at 10 µM,LOX IMVI,199%
same,GI50,HOP-62,12.7 µM
same,inhibition at 10 µM,HOP-62,74%
same,GI50,[3]; read-out: GI50 MG-MID,4.1 µM
same,GI50,[3]; read-out: MG-MID GI50,4.1 µM
same,SI (Selectivity Index),[3]; full panel MG-MID / Prostatic Cancer subpanel MG-MID,1.13
same,GI50,MDA-MB-231/ATCC,2.16 µM
same,GI50,Renal cancer cell lines; read-out: GI50 MG-MID,5.2 µM
same,GI50,Renal cancer cell lines; read-out: MG-MID GI50,5.2 µM
same,SI (Selectivity Index),Renal cancer cell lines; full panel MG-MID / Renal Cancer subpanel MG-MID,0.89
same,GI50,UO-31,3.04 µM
same,GI50,MALME-3M,2.19 µM
same,inhibition at 10 µM,MALME-3M,132%
same,GI50,SK-OV-3,13.9 µM
same,inhibition at 10 µM,SK-OV-3,15.2%
same,GI50,ACHN,1.9 µM
same,inhibition at 10 µM,ACHN,165%
same,GI50,SK-MEL-5,6.51 µM
same,inhibition at 10 µM,SK-MEL-5,174%
same,GI50,NCI-H226,2.76 µM
same,inhibition at 10 µM,NCI-H226,116%
same,GI50,SF-295,10.3 µM
same,inhibition at 10 µM,SF-295,91.9%
same,GI50,HT29,2.19 µM
same,inhibition at 10 µM,HT29,182%
same,GI50,Leukaemia cell lines; read-out: GI50 MG-MID,2.49 µM
same,GI50,Leukaemia cell lines; read-out: MG-MID GI50,2.49 µM
same,SI (Selectivity Index),Leukaemia cell lines; full panel MG-MID / leukaemia subpanel MG-MID,1.87
same,GI50,MDA-MB-435,2.28 µM
same,inhibition at 10 µM,MDA-MB-435,124%
same,GI50,MDA-MB-468,1.67 µM
same,inhibition at 10 µM,MDA-MB-468,175%
same,GI50,COLO 205,10.9 µM
same,inhibition at 10 µM,COLO 205,156%
same,GI50,[4]; read-out: GI50 MG-MID,5.71 µM
same,GI50,[4]; read-out: MG-MID GI50,5.71 µM
same,SI (Selectivity Index),[4]; full panel MG-MID / Ovarian Cancer subpanel MG-MID,0.81
same,GI50,DU-145,5.15 µM
same,inhibition at 10 µM,DU-145,92.2%
same,GI50,CNS cancer cell lines; read-out: GI50 MG-MID,7.46 µM
same,GI50,CNS cancer cell lines; read-out: MG-MID GI50,7.46 µM
same,SI (Selectivity Index),CNS cancer cell lines; full panel MG-MID / CNS Cancer subpanel MG-MID,0.62
same,GI50,NSCLC cell lines; read-out: GI50 MG-MID,7.24 µM
same,GI50,NSCLC cell lines; read-out: MG-MID GI50,7.24 µM
same,SI (Selectivity Index),NSCLC cell lines; full panel MG-MID / NSCLC subpanel MG-MID,0.64
same,IC50,Human VEGFR-2,1.77 ± 0.021 µM
same,GI50,OVCAR-4,8.63 µM
same,inhibition at 10 µM,OVCAR-4,88.5%
same,GI50,Colon cancer cell lines; read-out: GI50 MG-MID,3.26 µM
same,GI50,Colon cancer cell lines; read-out: MG-MID GI50,3.26 µM
same,SI (Selectivity Index),Colon cancer cell lines; full panel MG-MID / Colon Cancer subpanel MG-MID,1.43
same,GI50,KM12,2.25 µM
same,inhibition at 10 µM,KM12,162%
same,GI50,Breast cancer cell lines; read-out: GI50 MG-MID,2.45 µM
same,GI50,Breast cancer cell lines; read-out: MG-MID GI50,2.45 µM
same,SI (Selectivity Index),Breast cancer cell lines; full panel MG-MID / Breast Cancer subpanel MG-MID,1.90
"CC(=O)Nc1ccc(/C=C/C(=O)c2cccc(NCc3ccc4oc(=O)ccc4c3)c2)cc1 [Compound 5k, (E)-N-(4–(3-oxo-3–(3-(((2-oxo-2H-chromen-6-yl)methyl)amino)phenyl)prop-1-en-1-yl)phenyl)acetamide]",inhibition at 10 µM,CCRF-CEM,87.9%
same,inhibition at 10 µM,UACC-257,45.1%
same,inhibition at 10 µM,LOX IMVI,57.8%
same,inhibition at 10 µM,HOP-62,10.8%
same,inhibition at 10 µM,MALME-3M,37.8%
same,inhibition at 10 µM,SK-OV-3,3.88%
same,inhibition at 10 µM,ACHN,34.7%
same,inhibition at 10 µM,SK-MEL-5,76.3%
same,inhibition at 10 µM,NCI-H226,35.7%
same,inhibition at 10 µM,SF-295,36.8%
same,inhibition at 10 µM,HT29,15.6%
same,inhibition at 10 µM,MDA-MB-435,22.1%
same,inhibition at 10 µM,MDA-MB-468,72.9%
same,inhibition at 10 µM,COLO 205,-13.2%
same,inhibition at 10 µM,DU-145,18.3%
same,inhibition at 10 µM,OVCAR-4,43.9%
same,inhibition at 10 µM,KM12,34.4%
